Blank lines part the entries; values can stand above or below the molecule they belong to. Activity calls are given as the source filed them.
Experiments:
[1] = cells; assay type: functional, cell-based
[2] = cells; assay type: functional, cell-based; remark: listed apart in the source
[3] = target: T1, Coagulation factor XII (Homo sapiens, UniProt P00748); assay type: functional;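 note: activated factor XIIa alpha cleaving a fluorogenic AMC peptide substrate; inhibitor potency from loss of enzyme activity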
T1 sequence (P00748 whole entry): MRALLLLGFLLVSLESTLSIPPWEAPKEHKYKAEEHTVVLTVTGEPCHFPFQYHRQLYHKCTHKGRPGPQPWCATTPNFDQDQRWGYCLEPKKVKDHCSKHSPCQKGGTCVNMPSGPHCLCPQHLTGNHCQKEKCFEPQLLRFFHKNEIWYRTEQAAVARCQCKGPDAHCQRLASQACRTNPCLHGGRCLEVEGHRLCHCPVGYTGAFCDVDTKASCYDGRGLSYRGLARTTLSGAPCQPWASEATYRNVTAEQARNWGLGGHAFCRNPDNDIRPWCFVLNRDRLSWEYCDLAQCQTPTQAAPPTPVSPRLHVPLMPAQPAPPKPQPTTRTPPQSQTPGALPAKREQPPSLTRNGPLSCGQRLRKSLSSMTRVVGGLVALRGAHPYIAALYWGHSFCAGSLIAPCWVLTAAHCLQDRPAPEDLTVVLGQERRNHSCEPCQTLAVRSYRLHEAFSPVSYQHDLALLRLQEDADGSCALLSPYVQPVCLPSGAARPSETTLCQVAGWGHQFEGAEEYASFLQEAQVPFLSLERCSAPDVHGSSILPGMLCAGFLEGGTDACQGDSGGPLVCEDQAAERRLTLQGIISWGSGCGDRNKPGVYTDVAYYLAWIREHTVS

[4] = target: T2, Polyadenylate-binding protein 1 (Homo sapiens, UniProt P11940); experiment: MLLE binding blockers, Cy5 peptide tracer – biochemical, fluorescence polarization, Cy5-PAM2 peptide, secondary, miRNA deadenylation inhibitor project, dose response (AID 602260); assay type: functional; conditions: read-out: IC50_Mean
[5] = target: T2, Polyadenylate-binding protein 1; experiment: MLLE domain peptide-binding blockers, IC50 – biochemical, fluorescence polarization, FITC-PAM2 peptide, dose response (AID 602259); assay type: functional; conditions: read-out: IC50_Mean
[6] = off-target signal loss in HeLa-CEM21 co-culture – HeLa F-luc CTL cells, cherry-picked, counter-screen for HIV-1 Env fusion inhibitor project, dose response (AID 652040); assay type: functional, cell-based;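 note: potency for signal decrease marking cytotoxic or nonspecific inhibition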
[7] = HIV-1 AD8 envelope cell-cell fusion blockers – cherry-pick, dose response (AID 652062); assay type: functional, cell-based;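 note: luciferase signal from cell-cell fusion driven by HIV-1 clade B AD8 Env; potency is for inhibitors of fusion seen as a drop in luminescence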
[8] = target: T3, Ubiquitin-conjugating enzyme E2 N (Homo sapiens, UniProt P61088); assay type: functional;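 note: Dose-response confirmation in a TR-FRET assay detecting UBC13-driven polyubiquitin chain formation, inhibition measured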
T3 sequence (P61088 whole entry): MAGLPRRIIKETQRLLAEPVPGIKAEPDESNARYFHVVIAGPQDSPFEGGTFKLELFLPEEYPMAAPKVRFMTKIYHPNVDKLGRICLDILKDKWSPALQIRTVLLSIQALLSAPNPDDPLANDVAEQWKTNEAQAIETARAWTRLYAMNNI

[9] = tested on: HEK293; experiment: EBV LMP1 TES2 canonical NF-kB signalling blockers – cell-based, HEK293, luciferase, cherry-pick, dose response (AID 588343); assay type: functional; conditions: Homo sapiens
[10] = target: T4, RNA-binding protein pos-1 (Caenorhabditis elegans, UniProt G5EF15); experiment: disruptors of C. elegans POS-1 RNA interaction – biochemical, fluorescence polarization, dose response (AID 1964);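 note: purified POS-1 fused to maltose binding protein made in E. coli; potency of compounds blocking POS-1 binding to fluorescent RNA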
T4 sequence (G5EF15 whole entry): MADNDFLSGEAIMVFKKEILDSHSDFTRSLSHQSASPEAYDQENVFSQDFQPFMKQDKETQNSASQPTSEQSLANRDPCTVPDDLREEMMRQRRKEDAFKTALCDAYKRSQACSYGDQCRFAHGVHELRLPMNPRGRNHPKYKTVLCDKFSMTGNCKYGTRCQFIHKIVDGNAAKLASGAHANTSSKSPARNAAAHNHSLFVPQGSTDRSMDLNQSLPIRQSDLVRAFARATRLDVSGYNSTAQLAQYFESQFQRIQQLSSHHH

[11] = target: T5, Zinc finger protein mex-5 (Caenorhabditis elegans, UniProt Q9XUB2); experiment: potency of MEX-5 RNA-binding blockers – biochemical, C. elegans, fluorescence polarization, dose response (AID 1960)
T5 sequence (Q9XUB2 whole entry): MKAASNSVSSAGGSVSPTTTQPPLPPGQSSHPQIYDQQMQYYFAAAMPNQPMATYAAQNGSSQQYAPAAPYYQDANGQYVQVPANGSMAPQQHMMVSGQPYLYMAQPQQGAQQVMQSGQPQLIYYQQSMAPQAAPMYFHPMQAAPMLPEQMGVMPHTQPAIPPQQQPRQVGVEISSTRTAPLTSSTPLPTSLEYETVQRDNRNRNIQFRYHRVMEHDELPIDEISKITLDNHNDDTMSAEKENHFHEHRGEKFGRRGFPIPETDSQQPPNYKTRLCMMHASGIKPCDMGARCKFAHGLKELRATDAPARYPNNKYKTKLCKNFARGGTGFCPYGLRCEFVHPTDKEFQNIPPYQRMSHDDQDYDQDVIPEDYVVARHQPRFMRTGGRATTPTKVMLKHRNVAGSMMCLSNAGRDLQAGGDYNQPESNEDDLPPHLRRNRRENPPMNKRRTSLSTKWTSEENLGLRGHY

[12] = target: T6, Heat shock factor protein 1 (Mus musculus, UniProt P38532); experiment: enhancement of HSF1-driven luciferase signal – cell-based, NIH3T3, luminescence, dose retest, confirmation (AID 435004); assay type: functional;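 note: stress induced by proteasome inhibitor MG132 added 30 min after compound; luciferase reporter driven by HSF1 response element in NIH3T3 cells; actives raise luminescence as potentiators of the MG132 stress response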
T6 sequence (P38532 whole entry): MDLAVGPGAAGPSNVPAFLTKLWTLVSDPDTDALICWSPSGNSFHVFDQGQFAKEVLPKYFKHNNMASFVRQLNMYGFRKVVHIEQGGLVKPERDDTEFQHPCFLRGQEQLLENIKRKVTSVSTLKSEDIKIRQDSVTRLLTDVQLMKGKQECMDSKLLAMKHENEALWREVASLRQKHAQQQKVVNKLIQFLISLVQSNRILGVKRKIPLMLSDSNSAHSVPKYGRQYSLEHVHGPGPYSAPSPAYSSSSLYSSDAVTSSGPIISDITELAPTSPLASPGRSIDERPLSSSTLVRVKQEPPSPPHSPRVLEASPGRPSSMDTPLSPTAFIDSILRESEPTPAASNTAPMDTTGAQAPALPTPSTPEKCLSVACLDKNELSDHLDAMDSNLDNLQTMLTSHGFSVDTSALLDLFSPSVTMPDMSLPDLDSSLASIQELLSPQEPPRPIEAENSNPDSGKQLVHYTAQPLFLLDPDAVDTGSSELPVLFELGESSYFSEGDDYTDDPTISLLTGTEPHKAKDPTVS

T2 sequence (P11940 whole entry, the tested form may be a part): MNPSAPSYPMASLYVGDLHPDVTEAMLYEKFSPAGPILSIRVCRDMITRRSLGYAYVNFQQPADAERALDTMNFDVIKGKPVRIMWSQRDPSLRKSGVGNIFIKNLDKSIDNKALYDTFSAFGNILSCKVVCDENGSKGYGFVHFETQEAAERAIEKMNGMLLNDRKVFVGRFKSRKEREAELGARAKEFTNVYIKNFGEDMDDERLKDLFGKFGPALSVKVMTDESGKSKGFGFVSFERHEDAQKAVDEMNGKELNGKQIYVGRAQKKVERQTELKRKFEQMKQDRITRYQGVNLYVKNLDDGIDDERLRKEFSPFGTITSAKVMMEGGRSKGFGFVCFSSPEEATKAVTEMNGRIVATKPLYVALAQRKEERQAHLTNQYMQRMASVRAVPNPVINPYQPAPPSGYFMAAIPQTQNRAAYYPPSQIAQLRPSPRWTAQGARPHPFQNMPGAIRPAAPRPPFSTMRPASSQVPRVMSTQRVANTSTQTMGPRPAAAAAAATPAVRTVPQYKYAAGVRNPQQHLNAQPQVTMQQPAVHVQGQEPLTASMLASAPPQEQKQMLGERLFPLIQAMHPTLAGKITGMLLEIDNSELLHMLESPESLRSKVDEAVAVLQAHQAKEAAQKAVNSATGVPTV

Compound: COCCNC(=O)C(=O)NCC1OCCN1S(=O)(=O)c1cc(F)ccc1F (stereo not given)
EC50 [1]: > 350 µM (not active)
EC50 [2]: > 350 µM (not active)

Compound: CC1CN(S(=O)(=O)c2cccc(C(=O)N(CCc3ccccc3)Cc3ccccc3)c2)CC(C)O1 (stereo not given)
EC50 [1]: > 350 µM (not active)
EC50 [2]: > 350 µM (not active)

Compound: CC12CC3(C)CC(C)(C1)CC(C(=O)NCCc1ccc(S(N)(=O)=O)cc1)(C2)C3
EC50 [1]: > 350 µM (not active)
EC50 [2]: > 350 µM (not active)

Compound: Cc1cccc(C)c1NC(=O)CCCSc1nnc(-c2ccc(Cl)cc2)n1-c1ccccc1
AC50 [6]: 48.8 µM (active)
AC50 [7]: 10.5 µM (active)

Compound: COc1ccccc1C(N)=S
IC50 [4]: > 66 µM (inactive)
IC50 [5]: > 66 µM (inactive)

Compound: O=C(CSc1nc2ccsc2c(=O)n1Cc1ccc(C(=O)O)cc1)NCc1ccco1
IC50 [8]: > 20 µM (inactive)

Compound: COc1ccc(C(=O)Nc2nnc(SCC(=O)NC3CC3)s2)cc1
AC50 [9]: 4.42 µM (active)

Compound: Cc1ccc(C2(C)NC(=O)N(CC(=O)Nc3ccccc3N3CCCC3)C2=O)cc1 (stereo not given)
EC50 [1]: > 350 µM (not active)
EC50 [2]: > 350 µM (not active)

Compound: COCc1cc(O)nc(SCCS(=O)(=O)c2ccc(Cl)cc2Cl)n1
EC50 [12]: > 260 µM (inactive)
IC50 [4]: > 66 µM (inactive)
IC50 [5]: > 66 µM (inactive)

Compound: CCc1ccc(C(N)=S)cc1
IC50 [4]: > 66 µM (inactive)
IC50 [5]: > 66 µM (inactive)

Next, values leading:

IC50 [3]: > 50 µM (inactive)
Compound: CC(C)N(Cc1ccccc1)C(S)=NC1CCCCC1

IC50 [4]: > 66 µM (inactive)
IC50 [5]: > 66 µM (inactive)
Compound: CC(=O)Nc1ccc(SCC(=O)NC(=O)c2ccccc2Br)cc1

IC50 [3]: > 50 µM (inactive)
Compound: Cc1ccc2oc(NC(=O)N3CCOCC3)cc(=O)c2c1

IC50 [4]: > 66 µM (inactive)
IC50 [5]: > 66 µM (inactive)
Compound: O=S(=O)(NC(=S)NC1CCCCC1)c1cccs1

IC50 [3]: > 50 µM (inactive)
Compound: Cc1sc(NC(=O)CSc2nnnn2C2CCCC2)c(C#N)c1C

EC50 [10]: 51.9 µM (active)
EC50 [11]: 82.7 µM (active)
Compound: CCCOc1cccc(C2C(C(=O)c3ccco3)=C(O)C(=O)N2c2nnc(C)s2)c1 (stereo not given)

EC50 [10]: > 300 µM (not active)
EC50 [11]: > 300 µM (not active)
Compound: CCN(CC)C(=O)c1cc2c(=O)c3cc(Cl)ccc3oc2nc1C
